According to patent publication US11739098B2 (BRISTOL-MYERS SQUIBB COMPANY, priority 2017, dated 2023):
Where a name gives a salt, the structure may show the parent alone.

Columns and labels:
Format in all cases: cell-based
human TLR7 = target: T1, human TLR7 (Homo sapiens, UniProt Q9NYK1); experiment: TLR7 inhibition reporter assay (HEK-Blue cells, SEAP reporter, gardiquimod stimulation); conditions: HEK-Blue cells overexpressing human TLR7, SEAP reporter, gardiquimod 7.5 μM
T1 construct: host or cells: HEK-Blue cells (HEK293-derived reporter line)
T1 sequence (Q9NYK1 27-1049): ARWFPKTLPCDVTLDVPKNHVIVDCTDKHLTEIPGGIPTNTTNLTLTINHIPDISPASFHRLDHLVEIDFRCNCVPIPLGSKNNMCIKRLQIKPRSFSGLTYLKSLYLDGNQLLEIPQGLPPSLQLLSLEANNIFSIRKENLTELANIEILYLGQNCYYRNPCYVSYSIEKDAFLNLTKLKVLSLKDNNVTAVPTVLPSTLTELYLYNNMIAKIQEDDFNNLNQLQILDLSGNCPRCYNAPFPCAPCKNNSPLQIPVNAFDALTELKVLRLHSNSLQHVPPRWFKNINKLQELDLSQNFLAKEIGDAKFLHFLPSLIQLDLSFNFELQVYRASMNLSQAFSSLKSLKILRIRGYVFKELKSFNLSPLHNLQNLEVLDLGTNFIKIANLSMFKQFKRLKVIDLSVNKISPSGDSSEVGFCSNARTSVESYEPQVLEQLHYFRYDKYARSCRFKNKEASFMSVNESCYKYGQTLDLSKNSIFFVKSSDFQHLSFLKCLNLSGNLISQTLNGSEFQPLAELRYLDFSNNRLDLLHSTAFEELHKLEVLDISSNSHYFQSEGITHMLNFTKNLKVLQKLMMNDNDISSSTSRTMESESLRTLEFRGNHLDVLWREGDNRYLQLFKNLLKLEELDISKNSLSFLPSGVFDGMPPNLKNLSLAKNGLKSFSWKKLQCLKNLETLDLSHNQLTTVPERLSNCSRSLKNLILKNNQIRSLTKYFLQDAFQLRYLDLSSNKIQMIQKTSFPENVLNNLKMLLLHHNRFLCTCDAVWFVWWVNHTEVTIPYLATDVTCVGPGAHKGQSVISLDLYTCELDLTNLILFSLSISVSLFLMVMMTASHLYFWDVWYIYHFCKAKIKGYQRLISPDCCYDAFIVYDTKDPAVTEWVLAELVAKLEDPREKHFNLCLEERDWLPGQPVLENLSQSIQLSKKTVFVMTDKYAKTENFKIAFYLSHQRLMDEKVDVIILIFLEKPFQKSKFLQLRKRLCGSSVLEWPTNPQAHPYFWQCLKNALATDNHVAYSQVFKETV
How it was run: (§1)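 HEK-Blue cells overexpressing the receptor, with NF-κB/AP-1-driven SEAP, were pre-treated 30 min at room temperature with compound (0.05 nM–50 μM), then stimulated with gardiquimod 7.5 μM (TLR7), R848 15.9 μM (TLR8) or ODN2006 5 nM (TLR9). SEAP was read after 22 h at 37 °C as percent inhibition.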

human TLR8 = target: T2, human TLR8 (Homo sapiens, UniProt Q9NR97); experiment: TLR8 inhibition reporter assay (HEK-Blue cells, SEAP reporter, R848 stimulation); conditions: HEK-Blue cells overexpressing human TLR8, SEAP reporter, R848 15.9 μM
T2 construct: host or cells: HEK-Blue cells (HEK293-derived reporter line)
T2 sequence (Q9NR97 27-1041): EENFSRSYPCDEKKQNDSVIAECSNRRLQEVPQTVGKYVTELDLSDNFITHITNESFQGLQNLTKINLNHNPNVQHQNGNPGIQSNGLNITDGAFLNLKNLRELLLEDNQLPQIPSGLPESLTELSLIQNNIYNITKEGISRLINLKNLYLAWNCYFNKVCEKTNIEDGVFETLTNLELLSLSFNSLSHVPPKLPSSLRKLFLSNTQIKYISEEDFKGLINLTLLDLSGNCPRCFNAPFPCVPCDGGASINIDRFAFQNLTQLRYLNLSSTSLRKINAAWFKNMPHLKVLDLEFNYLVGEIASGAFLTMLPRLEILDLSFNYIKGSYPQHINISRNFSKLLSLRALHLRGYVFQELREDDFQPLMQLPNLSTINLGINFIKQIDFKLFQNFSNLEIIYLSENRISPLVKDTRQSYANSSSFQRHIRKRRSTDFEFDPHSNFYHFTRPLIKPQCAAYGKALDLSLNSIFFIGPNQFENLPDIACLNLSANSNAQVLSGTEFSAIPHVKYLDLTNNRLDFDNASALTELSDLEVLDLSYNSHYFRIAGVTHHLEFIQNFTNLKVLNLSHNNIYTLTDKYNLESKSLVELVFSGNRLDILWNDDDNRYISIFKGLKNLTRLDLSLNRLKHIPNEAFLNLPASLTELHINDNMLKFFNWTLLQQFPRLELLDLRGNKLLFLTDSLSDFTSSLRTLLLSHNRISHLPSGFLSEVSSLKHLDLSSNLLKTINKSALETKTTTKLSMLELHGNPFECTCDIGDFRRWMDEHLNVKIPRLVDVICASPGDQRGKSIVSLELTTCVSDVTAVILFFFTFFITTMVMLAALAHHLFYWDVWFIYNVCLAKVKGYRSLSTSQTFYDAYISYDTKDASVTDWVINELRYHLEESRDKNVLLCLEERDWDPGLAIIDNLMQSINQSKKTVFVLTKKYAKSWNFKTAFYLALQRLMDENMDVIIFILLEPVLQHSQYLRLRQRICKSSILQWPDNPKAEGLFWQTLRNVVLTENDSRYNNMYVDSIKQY
How it was run: as §1

human TLR9 = target: T3, human TLR9 (Homo sapiens, UniProt Q9NR96); experiment: TLR9 inhibition reporter assay (HEK-Blue cells, SEAP reporter, ODN2006 stimulation); conditions: HEK-Blue cells overexpressing human TLR9, SEAP reporter, ODN2006 5 nM
T3 construct: host or cells: HEK-Blue cells (HEK293-derived reporter line)
T3 sequence (Q9NR96 26-1032): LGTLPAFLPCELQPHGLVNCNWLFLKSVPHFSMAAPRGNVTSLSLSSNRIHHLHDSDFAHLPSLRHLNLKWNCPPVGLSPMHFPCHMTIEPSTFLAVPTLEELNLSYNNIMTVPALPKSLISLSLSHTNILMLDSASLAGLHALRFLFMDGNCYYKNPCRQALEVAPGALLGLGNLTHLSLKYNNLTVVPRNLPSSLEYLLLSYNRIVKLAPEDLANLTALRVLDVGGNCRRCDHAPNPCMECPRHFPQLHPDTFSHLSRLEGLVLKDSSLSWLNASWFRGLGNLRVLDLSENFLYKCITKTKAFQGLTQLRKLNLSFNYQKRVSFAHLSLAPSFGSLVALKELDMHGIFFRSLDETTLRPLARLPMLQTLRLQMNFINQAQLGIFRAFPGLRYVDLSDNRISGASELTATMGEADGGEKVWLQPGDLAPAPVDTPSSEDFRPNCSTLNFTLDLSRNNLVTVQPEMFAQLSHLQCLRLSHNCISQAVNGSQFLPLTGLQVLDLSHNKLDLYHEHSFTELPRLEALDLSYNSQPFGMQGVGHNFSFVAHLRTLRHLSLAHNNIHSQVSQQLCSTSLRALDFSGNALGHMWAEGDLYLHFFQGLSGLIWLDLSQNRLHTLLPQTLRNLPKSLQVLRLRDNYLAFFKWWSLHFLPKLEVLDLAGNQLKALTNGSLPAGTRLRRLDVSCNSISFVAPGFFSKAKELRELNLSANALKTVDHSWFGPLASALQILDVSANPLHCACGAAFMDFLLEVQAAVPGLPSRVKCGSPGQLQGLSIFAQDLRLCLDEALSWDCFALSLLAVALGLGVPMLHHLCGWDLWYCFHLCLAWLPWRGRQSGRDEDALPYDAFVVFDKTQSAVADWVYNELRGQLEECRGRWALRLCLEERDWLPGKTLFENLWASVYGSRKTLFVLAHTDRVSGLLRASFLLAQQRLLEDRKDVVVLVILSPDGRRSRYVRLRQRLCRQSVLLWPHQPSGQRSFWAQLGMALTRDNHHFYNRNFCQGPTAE
How it was run: as §1

In the case of `CC(=O)N1CCC(N2CCC(c3ccc4[nH]c(-c5ccnc6[nH]ncc56)c(C(C)C)c4c3)CC2)CC1` [Example 823, 1-(4-(3-isopropyl-2-(1H-pyrazolo[3,4-b]pyridin-4-yl)-1H-indol-5-yl)-[1,4′-bipiperidin]-1′-yl)ethan-1-one], the IC50 (human TLR7) is reported as < 100 nM, the IC50 (human TLR8) is reported as < 100 nM and the IC50 (human TLR9) is reported as 1000 to 50000 nM.
In the case of `CC(C)c1c(-c2ccnc3[nH]ncc23)[nH]c2cc(C(F)(F)F)c(C3CCNCC3)cc12` [Example 249, 4-(3-isopropyl-5-(piperidin-4-yl)-6-(trifluoromethyl)-1H-indol-2-yl)-1H-pyrazolo[3,4-b]pyridine], the IC50 (human TLR7) is reported as < 100 nM, the IC50 (human TLR8) is reported as 100 to 1000 nM and the IC50 (human TLR9) is reported as 1000 to 50000 nM.
For `Cc1cc(-c2[nH]c3ccc(C4CCN(C(=O)CCN(C)C(C)C)CC4)cc3c2C(C)C)cn2nnnc12` [Example 624, 3-(isopropyl(methyl)amino)-1-(4-(3-isopropyl-2-(8-methyltetrazolo[1,5-a]pyridin-6-yl)-1H-indol-5-yl)piperidin-1-yl)propan-1-one], the IC50 (human TLR7) was < 100 nM, the IC50 (human TLR8) was < 100 nM and the IC50 (human TLR9) was 100 to 1000 nM.
In the case of `CC(C)c1c(-c2ccnc3[nH]ncc23)[nH]c2ccc(C3CCN(Cc4cnc5ccccc5c4)CC3)cc12` [Example 895, 3-((4-(3-isopropyl-2-(1H-pyrazolo[3,4-b]pyridin-4-yl)-1H-indol-5-yl)piperidin-1-yl)methyl)quinoline], the IC50 (human TLR7) is reported as 100 to 1000 nM, the IC50 (human TLR8) is reported as < 100 nM and the IC50 (human TLR9) is reported as 1000 to 50000 nM.
With `CNCCN1CCC(c2ccc3[nH]c(-c4ccnc5[nH]ncc45)c(C(C)C)c3c2)CC1` [Example 650, 2-(4-(3-isopropyl-2-(1H-pyrazolo[3,4-b]pyridin-4-yl)-1H-indol-5-yl)piperidin-1-yl)-N-methylethanamine dihydrochloride] the IC50 (human TLR7) was < 100 nM, the IC50 (human TLR8) was < 100 nM and the IC50 (human TLR9) was 100 to 1000 nM.
`COc1cc(-c2[nH]c3ccc(C4CCN(C5COC5)CC4)cc3c2C(C)C)cc2nccn12` [Example 712, 7-(3-isopropyl-5-(1-(oxetan-3-yl)piperidin-4-yl)-1H-indol-2-yl)-5-methoxyimidazo[1,2-a]pyridine] was tested, and the IC50 (human TLR7) was 100 to 1000 nM, the IC50 (human TLR8) was 100 to 1000 nM and the IC50 (human TLR9) was 100 to 1000 nM.
`CC(C)c1c(-c2cnc3ncnn3c2)[nH]c2ccc(C3CCN(C4CCS(=O)(=O)CC4)CC3)cc12` [Example 798, 4-(4-(2-([1,2,4]triazolo[1,5-a]pyrimidin-6-yl)-3-isopropyl-1H-indol-5-yl)piperidin-1-yl)tetrahydro-2H-thiopyran 1,1-dioxide] was tested, and the IC50 (human TLR7) was < 100 nM, the IC50 (human TLR8) was < 100 nM and the IC50 (human TLR9) was 1000 to 50000 nM.
In the case of `Cc1nc2c(C)cc(-c3[nH]c4ccc(C5CCN(C(=O)CN(C)C)CC5)cc4c3C(C)C)cn2c1C` [Example 527, 2-(dimethylamino)-1-(4-(3-isopropyl-2-(2,3,8-trimethylimidazo[1,2-a]pyridin-6-yl)-1H-indol-5-yl)piperidin-1-yl)ethan-1-one], the IC50 (human TLR7) is reported as < 100 nM, the IC50 (human TLR8) is reported as 100 to 1000 nM and the IC50 (human TLR9) is reported as 100 to 1000 nM.
With `CNC(=O)CN1CCC(c2ccc3[nH]c(-c4cc(C)c5ncccc5c4)c(C(C)C)c3c2)CC1` [Example 437, 2-(4-(3-isopropyl-2-(8-methylquinolin-6-yl)-1H-indol-5-yl)piperidin-1-yl)-N-methylacetamide] the IC50 (human TLR7) was < 100 nM, the IC50 (human TLR8) was < 100 nM and the IC50 (human TLR9) was 1000 to 50000 nM.
For `CC(C)c1c(-c2ccc3cnnn3c2)[nH]c2ccc(C3CCN(C4COC4)CC3)cc12` [Example 734, 6-(3-isopropyl-5-(1-(oxetan-3-yl)piperidin-4-yl)-1H-indol-2-yl)-[1,2,3]triazolo[1,5-a]pyridine], the IC50 (human TLR7) was 100 to 1000 nM, the IC50 (human TLR8) was 100 to 1000 nM and the IC50 (human TLR9) was 1000 to 50000 nM.
With `CC(C)c1c(-c2c[nH]c3ccncc23)[nH]c2ccc(C3CCNCC3)cc12` [Example 14, 3-(3-isopropyl-5-(piperidin-4-yl)-1H-indol-2-yl)-1H-pyrrolo[3,2-c]pyridine] the IC50 (human TLR7) was > 3130 nM, the IC50 (human TLR8) was > 3130 nM and the IC50 (human TLR9) was 100 to 1000 nM.
In the case of `Cc1cc(-c2[nH]c3ccc(C4CCN(C(=O)CN5CCCCC5)CC4)cc3c2C(C)C)cn2nnnc12` [Example 472, 1-(4-(3-isopropyl-2-(8-methyltetrazolo[1,5-a]pyridin-6-yl)-1H-indol-5-yl)piperidin-1-yl)-2-(piperidin-1-yl)ethan-1-one], the IC50 (human TLR7) is reported as < 100 nM, the IC50 (human TLR8) is reported as < 100 nM and the IC50 (human TLR9) is reported as 1000 to 50000 nM.
`CCc1c(-c2ccnc3[nH]cnc23)[nH]c2ccc(C3CCNCC3)cc12` [Example 59, 7-(3-ethyl-5-(piperidin-4-yl)-1H-indol-2-yl)-3H-imidazo[4,5-b]pyridine] was tested, and the IC50 (human TLR7) was < 100 nM, the IC50 (human TLR8) was < 100 nM and the IC50 (human TLR9) was 100 to 1000 nM.
In the case of `CN(C)C(=O)CN1CCC(c2ccc3[nH]c(-c4cc(F)c5nccn5c4)c(CC(F)F)c3c2)CC1` [Example 409, 2-(4-(3-(2,2-difluoroethyl)-2-(8-fluoroimidazo[1,2-a]pyridin-6-yl)-1H-indol-5-yl)piperidin-1-yl)-N,N-dimethylacetamide], the IC50 (human TLR7) is reported as < 100 nM, the IC50 (human TLR8) is reported as 100 to 1000 nM and the IC50 (human TLR9) is reported as 1000 to 50000 nM.
